Reference: patent US20230108906A1, “SUBSTITUTED BICYCLIC AND TRICYCLIC UREAS AND AMIDES, ANALOGUES THEREOF, AND METHODS USING SAME” (Arbutus Biopharma Corporation, priority 2019, published 2023)

test system: HBV rcDNA in HepDE19 cells; assay: HepDE19 assay with bDNA quantitation of HBV rcDNA; type: cell-based, hepatitis B virus (HBV); conditions: Hepatitis B virus, HepDE19, 168 h, inhibition of rcDNA formation in HepDE19 cells (HepG2 derived), Tet-free medium, 7 day incubation, Quantigene 2.0 bDNA readout, top concentration 25 μM; read-out: DE-19bDNA EC50
In short: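 Cytotoxicity run on replicate plates (5,000 cells/well, 4 days, ATP luminescence, CC50), while antiviral plates (50,000 cells/well) received compound for 7 days after tetracycline withdrawal to induce HBV replication. Top dose 25 μM, 8 points, 0.5% DMSO; rcDNA by branched-DNA assay, % inhibition fitted (4-parameter) for EC50 and EC90.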

SMILES	EC50
CN(C(=O)Nc1ccc(F)c(Cl)c1)C1COCc2[nH]c(=O)c3cc(F)cc(F)c3c21 (stereo not drawn) [Compound 25, 3-(3-Chloro-4-fluorophenyl)-1-(8,10-difluoro-6-oxo-1,4,5,6-tetrahydro-2H-pyrano[3,4-c]isoquinolin-1-yl)-1-methylurea]	290 nM
Cc1cc(NC(=O)N(C)[C@@H]2COCc3[nH]c(=O)c4cc(F)c(F)cc4c32)ccc1F (single isomer, unassigned) [Compound 69]	10 nM
CCN(C(=O)Nc1ccc(F)c(Cl)c1)C1COCc2[nH]c(=O)c3cc(C#N)ccc3c21 (stereo not drawn) [Compound 90, 3-(3-Chloro-4-fluorophenyl)-1-(8-cyano-6-oxo-1,4,5,6-tetrahydro-2H-pyrano[3,4-c]isoquinolin-1-yl)-1-ethylurea]	360 nM
CN1Cc2[nH]c(=O)c3cc(F)c(F)cc3c2C(N(C)C(=O)Nc2ccc(F)c(C#N)c2)C1 (single isomer, unassigned) [Compound 174, 3-(3-Cyano-4-fluorophenyl)-1-(8,9-difluoro-3-methyl-6-oxo-1,2,3,4,5,6-hexahydrobenzo[c][1,7]naphthyridin-1-yl)-1-methylurea]	310 nM

same assay, conditions: inhibition of rcDNA formation in HepDE19 cells (HepG2 derived), Tet-free medium, 7 day incubation, Quantigene 2.0 bDNA readout, top concentration 25 μM; read-out: DE-19bDNA EC50

SMILES	EC50
Cc1cc(NC(=O)N(CC(C)C)C2COCc3[nH]c(=O)c4cc(F)ccc4c32)ccc1F (single isomer, unassigned) [Compound 132, 3-(4-Fluoro-3-methylphenyl)-1-(8-fluoro-6-oxo-1,4,5,6-tetrahydro-2H-pyrano[3,4-c]isoquinolin-1-yl)-1-isobutylurea]	150 nM
CN(C(=O)Nc1cc(F)c(F)c(F)c1)C1COCc2[nH]c(=O)c3cc(F)c(F)cc3c21 (single isomer, unassigned) [Compound 134, 1-(8,9-Difluoro-6-oxo-1,4,5,6-tetrahydro-2H-pyrano[3,4-c]isoquinolin-1-yl)-1-methyl-3-(3,4,5-trifluorophenyl)urea]	990 nM
CN(C(=O)Nc1ccc(F)c(C(F)F)c1)C1COCc2nc(NCCN)c3cc(F)c(F)cc3c21 (single isomer, unassigned) [Compound 248, 1-(6-((2-Aminoethyl)amino)-8,9-difluoro-1,4-dihydro-2H-pyrano[3,4-c]isoquinolin-1-yl)-3-(3-(difluoromethyl)-4-fluorophenyl)-1-methylurea]	3200 nM
CN(C(=O)Nc1ccc(F)c(C#N)c1)C1CS(=O)(=O)Cc2[nH]c(=O)c3cc(F)c(F)cc3c21 (single isomer, unassigned) [Compound 206, 3-(3-Cyano-4-fluorophenyl)-1-(8,9-difluoro-3,3-dioxido-6-oxo-1,4,5,6-tetrahydro-2H-thiopyrano[3,4-c]isoquinolin-1-yl)-1-methylurea]	4800 nM
CN(C(=O)Nc1ccc(F)c(F)c1)C1CCCc2[nH]c(=O)c3c(c21)CCOC3 (single isomer, unassigned) [Compound 63, 3-(3,4-Difluorophenyl)-1-methyl-1-(5-oxo-1,4,5,6,7,8,9,10-octahydro-2H-pyrano[3,4-c]quinolin-10-yl)urea]	3100 nM
CN(C(=O)Nc1ccc(F)c(C#N)c1)C1CN(CCO)Cc2[nH]c(=O)c3cc(F)ccc3c21 (single isomer, unassigned) [Compound 171, 3-(3-Cyano-4-fluorophenyl)-1-(8-fluoro-3-(2-hydroxyethyl)-6-oxo-1,2,3,4,5,6-hexahydrobenzo[c][1,7]naphthyridin-1-yl)-1-methylurea]	23000 nM
CCN(C(=O)Nc1ccc(F)c(Cl)c1)C1CCCc2[nH]c(=O)c3c(c21)CCCC3 (single isomer, unassigned) [Compound 53, 3-(3-Chloro-4-fluorophenyl)-1-ethyl-1-(6-oxo-1,2,3,4,5,6,7,8,9,10-decahydrophenanthridin-1-yl)urea]	2600 nM
CC(C)CN(C(=O)Nc1cc(F)c(F)c(F)c1)C1COCc2[nH]c(=O)c3cc(F)ccc3c21 (single isomer, unassigned) [Compound 113, 1-(8-Fluoro-6-oxo-2,4,5,6-tetrahydro-1H-pyrano[3,4-c]isoquinolin-1-yl)-1-isobutyl-3-(3,4,5-trifluorophenyl)urea]	20 nM
